{
  "source": "patent US8815929B2",
  "about": "“Method and therapeutic/cosmetic topical compositions for the treatment of rosacea and skin erythema using α1-adrenoceptor agonists” (Allergan, Inc., priority 2004, dated 2014)",
  "origin": "cited, not measured here",
  "key": {"[1]": {"details": "retrospective study in man"}, "[2]": {"details": "rabbits; injection subcutaneously"}, "[3]": {"details": "dog, cat, rabbit or mouse; dosages close to those used in man; manufacturers' report"}, "[4]": {"details": "used intranasally and ophthalmically for decades"}},
  "note": "Where a name gives a salt, the structure may show the parent alone.",
  "data": [
    {"smiles": "Cc1cc(C(C)(C)C)c(O)c(C)c1CC1=NCCN1", "note": "[oxymetazoline, 2-(3-Hydroxy-2,6-dimethyl-4-t-butylbenzyl)-2-imidazoline hydrochloride]", "values": [
      {"measurement": "association between the drug and congenital disorders", "setting": "[1]", "value": "no association was found"},
      {"measurement": "drug related abnormalities or effects on the offspring", "setting": "[2]", "value": "no drug related abnormalities or effects on the offspring were found"},
      {"measurement": "organ damage or general toxicity", "setting": "[3]", "value": "no significant organ damage or general toxicity"},
      {"measurement": "systemic side effects", "setting": "[4]", "value": "has not been reported to effect any systemic side effects"}
    ]}
  ]
}
